Measured values: PubChem BioAssay AID248 (DTP/NCI, 2004)
“And” between values parts separate entries of the source, which are not always exact repeats. Identical values can stand only once. Toxic doses and inconclusive results are not listed. No stated cut-off is given here; in the data, active means T/C of 150% or more; inactive means T/C below 125%.

Tested on: L1210 leukemia ip in BDF1 mice, survival T/C
Assay: NCI In Vivo Anticancer Drug Screen. Data for tumor model L1210 Leukemia (intraperitoneal) in B6D2F1 (BDF1) mice
Details: endpoint: mean survival time, higher = longer survival
How it was run: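 In this screen, tumor-bearing mice given compound are compared to those given vehicle, and their survival values are reported as a treated-to-control quotient.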

[1] = dose: 100.0 mg/kg/injection, schedule: Q01DX001 (ip), vehicle: Klucel (hydroxypropylcellulose) (HPC)
[2] = dose: 200.0 mg/kg/injection, schedule: Q01DX001 (ip), vehicle: Klucel (hydroxypropylcellulose) (HPC)
[3] = dose: 100.0 mg/kg/injection, schedule: Q01DX009 (ip), vehicle: Klucel (hydroxypropylcellulose) (HPC)
[4] = dose: 200.0 mg/kg/injection, schedule: Q01DX009 (ip), vehicle: Klucel (hydroxypropylcellulose) (HPC)
[5] = dose: 400.0 mg/kg/injection, schedule: Q01DX009 (ip), vehicle: Klucel (hydroxypropylcellulose) (HPC)
[6] = dose: 50.0 mg/kg/injection, schedule: Q01DX009 (ip), vehicle: saline with Tween-80
[7] = dose: 100.0 mg/kg/injection, schedule: Q01DX009 (ip), vehicle: saline with Tween-80
[8] = dose: 100.0 mg/kg/injection, schedule: Q04DX003 (ip), vehicle: saline with Tween-80
[9] = dose: 200.0 mg/kg/injection, schedule: Q01DX009 (ip), vehicle: saline with Tween-80
[10] = dose: 200.0 mg/kg/injection, schedule: Q04DX003 (ip), vehicle: saline with Tween-80
[11] = dose: 400.0 mg/kg/injection, schedule: Q04DX003 (ip), vehicle: saline with Tween-80
[12] = dose: 100.0 mg/kg/injection, schedule: Q04DX002 (ip), vehicle: saline
[13] = dose: 200.0 mg/kg/injection, schedule: Q04DX002 (ip), vehicle: saline
[14] = dose: 100.0 mg/kg/injection, schedule: Q04DX002 (ip), vehicle: Klucel (hydroxypropylcellulose) (HPC)
[15] = dose: 100.0 mg/kg/injection, schedule: Q04DX003 (ip), vehicle: Klucel (hydroxypropylcellulose) (HPC)
[16] = dose: 200.0 mg/kg/injection, schedule: Q04DX002 (ip), vehicle: Klucel (hydroxypropylcellulose) (HPC)
[17] = dose: 200.0 mg/kg/injection, schedule: Q04DX003 (ip), vehicle: Klucel (hydroxypropylcellulose) (HPC)
[18] = dose: 400.0 mg/kg/injection, schedule: Q01DX001 (ip), vehicle: Klucel (hydroxypropylcellulose) (HPC)
[19] = dose: 400.0 mg/kg/injection, schedule: Q04DX002 (ip), vehicle: Klucel (hydroxypropylcellulose) (HPC)
[20] = dose: 400.0 mg/kg/injection, schedule: Q04DX003 (ip), vehicle: Klucel (hydroxypropylcellulose) (HPC)
[21] = dose: 100.0 mg/kg/injection, schedule: Q04DX003 (ip), vehicle: saline
[22] = dose: 200.0 mg/kg/injection, schedule: Q04DX003 (ip), vehicle: saline
[23] = dose: 400.0 mg/kg/injection, schedule: Q04DX003 (ip), vehicle: saline
[24] = dose: 100.0 mg/kg/injection, schedule: Q01DX001 (ip), vehicle: saline
[25] = dose: 200.0 mg/kg/injection, schedule: Q01DX001 (ip), vehicle: saline
[26] = dose: 100.0 mg/kg/injection, schedule: Q01DX009 (ip), vehicle: saline
[27] = dose: 200.0 mg/kg/injection, schedule: Q01DX009 (ip), vehicle: saline
[28] = dose: 50.0 mg/kg/injection, schedule: Q01DX009 (ip), vehicle: saline

Measured: T/C

CCNc1nc(C)c2nc(C(=O)NCc3ccccc3)c(=O)n(CC)c2n1
inactive: [1] 94 % of control | [2] 94 % of control

ClC1(Cl)C2CCC3C(CCC21)C3(Cl)Cl (stereo not drawn)
inactive: [3] 100 % of control | [4] 107 % of control | [5] 107 % of control

CC(C)=CCC/C(C)=C/CNC(=O)/C=C/C(=O)O
inactive: dose: 25.0 mg/kg/injection, schedule: Q01DX009 (ip), vehicle: saline with Tween-80 98 % of control | [6] 93 % of control | dose: 50.0 mg/kg/injection, schedule: Q04DX003 (ip), vehicle: saline with Tween-80 91 % of control | [7] 100 % of control and 90 % of control | [8] 94 % of control and 98 % of control | [9] 105 % of control | [10] 86 % of control | dose: 400.0 mg/kg/injection, schedule: Q01DX009 (ip), vehicle: saline with Tween-80 94 % of control | [11] 97 % of control

CCC(C#N)N1CC1 (stereo not drawn)
inactive: dose: 15.0 mg/kg/injection, schedule: Q01DX001 (ip), vehicle: saline 94 % of control | dose: 30.0 mg/kg/injection, schedule: Q01DX001 (ip), vehicle: saline 104 % of control

Cc1nc2ccccc2c(=O)n1C(C)(C)CCl
inactive: [8] 95 % of control | [10] 92 % of control | [11] 95 % of control

CCOC(=O)NCC(CCN(CC)CC)(c1cccc2ccccc12)C(C)CC (stereo not drawn)
inactive: [12] 93 % of control | [13] 90 % of control | dose: 400.0 mg/kg/injection, schedule: Q04DX002 (ip), vehicle: saline 100 % of control

C=CCc1ccc(OC(=O)NC(C)C)c(OC)c1
inactive: [1] 89 % of control | [3] 97 % of control and 88 % of control | [14] 98 % of control and 100 % of control | [15] 93 % of control | [2] 101 % of control | [4] 111 % of control and 91 % of control | [16] 98 % of control and 112 % of control | [17] 97 % of control | [18] 100 % of control | [5] 88 % of control | [19] 112 % of control and 119 % of control | [20] 101 % of control

COc1nc(Cl)nc(Cl)n1
inactive: dose: 6.0 mg/kg/injection, schedule: Q01DX Z (ip), vehicle: methylcellulose (MC) 89 % of control

CCOC(=S)Nc1ccccc1
inactive: [14] 103 % of control | [16] 90 % of control | [19] 107 % of control

NC(=O)Nc1ccc(C(=O)O)cc1
inactive: [1] 95 % of control | [15] 100 % of control | [2] 91 % of control | [17] 97 % of control | [18] 98 % of control | [20] 98 % of control

CC1CNC(=O)N1 (stereo not drawn)
inactive: [21] 102 % of control | [22] 101 % of control | dose: 222.0 mg/kg/injection, schedule: Q01DX Z (ip), vehicle: saline 97 % of control | dose: 333.0 mg/kg/injection, schedule: Q01DX Z (ip), vehicle: saline 111 % of control | [23] 96 % of control | dose: 500.0 mg/kg/injection, schedule: Q01DX Z (ip), vehicle: saline 103 % of control

CCCCCC[Si](Cl)(CCCCCC)CCCCCC
inactive: [24] 87 % of control | [25] 98 % of control

O=C(Nc1ccc(CC2=NCCN2)cc1)c1ccc(C(=O)Nc2ccc(CC3=NCCN3)cc2)cc1
inactive: dose: 0.5 mg/kg/injection, schedule: Q01DX Z (ip), vehicle: saline 102 % of control | dose: 1.0 mg/kg/injection, schedule: Q01DX Z (ip), vehicle: saline 104 % of control | dose: 2.0 mg/kg/injection, schedule: Q01DX Z (ip), vehicle: saline 91 % of control | dose: 4.0 mg/kg/injection, schedule: Q01DX Z (ip), vehicle: saline 104 % of control | dose: 8.0 mg/kg/injection, schedule: Q01DX Z (ip), vehicle: saline 104 % of control

COC1OC(CNCCO)C2OC(C)(C)OC12 (stereo not drawn)
inactive: [26] 103 % of control | [21] 101 % of control | [27] 96 % of control | [22] 98 % of control | dose: 400.0 mg/kg/injection, schedule: Q01DX009 (ip), vehicle: saline 101 % of control | [23] 95 % of control

CCOC1(C(=O)O)CC(c2ccc(Cl)cc2)Nc2c(OC)ccc(OC)c21 (stereo not drawn)
inactive: [8] 98 % of control | [10] 93 % of control

CC(C)=C(B1OC(C)(C)C(C)(C)O1)B1OC(C)(C)C(C)(C)O1
inactive: [15] 93 % of control | [17] 95 % of control | [20] 97 % of control

Cc1cccc(C)c1NC(=O)NC/C(Br)=C/Br
inactive: dose: 75.0 mg/kg/injection, schedule: Q01DX009 (ip), vehicle: Klucel (hydroxypropylcellulose) (HPC) 100 % of control | dose: 150.0 mg/kg/injection, schedule: Q01DX009 (ip), vehicle: Klucel (hydroxypropylcellulose) (HPC) 100 % of control | dose: 300.0 mg/kg/injection, schedule: Q01DX009 (ip), vehicle: Klucel (hydroxypropylcellulose) (HPC) 104 % of control

CCc1ccc2c(-c3ccccc3)ccc3c2c1C(=O)c1ccccc1-3
inactive: dose: 100.0 mg/kg/injection, schedule: Q04DX002 (ip), vehicle: saline with Tween-80 94 % of control | dose: 200.0 mg/kg/injection, schedule: Q04DX002 (ip), vehicle: saline with Tween-80 88 % of control | dose: 400.0 mg/kg/injection, schedule: Q04DX002 (ip), vehicle: saline with Tween-80 91 % of control

COc1ccc(C)cc1NC(=O)OCCOc1ccc(Cl)c(C)c1
inactive: [6] 93 % of control | [7] 90 % of control | [9] 93 % of control

CCCCCCCCCCCCCCCCCCNC(=O)Nc1cccc(OC)c1
inactive: dose: 25.0 mg/kg/injection, schedule: Q04DX002 (ip), vehicle: saline with Tween-80 102 % of control | dose: 50.0 mg/kg/injection, schedule: Q04DX002 (ip), vehicle: saline with Tween-80 89 % of control

O=C(Nc1ccc([N+](=O)[O-])cc1)c1cc(N2CCCC2)ccn1
inactive: [24] 100 % of control | [25] 96 % of control | dose: 400.0 mg/kg/injection, schedule: Q01DX001 (ip), vehicle: saline 100 % of control

CCOC(=O)CNc1ccc(Cl)cc1
inactive: dose: 25.0 mg/kg/injection, schedule: Q04DX002 (ip), vehicle: Klucel (hydroxypropylcellulose) (HPC) 98 % of control and 106 % of control | dose: 50.0 mg/kg/injection, schedule: Q04DX002 (ip), vehicle: Klucel (hydroxypropylcellulose) (HPC) 102 % of control | [14] 101 % of control and 91 % of control | [16] 102 % of control

COc1cc2c(cc1O)CCCCC2=O
inactive: [28] 92 % of control | [26] 104 % of control | [15] 97 % of control | [27] 119 % of control | [17] 102 % of control | [20] 94 % of control

C1=NC(c2ccccc2)=CN(C2CCCC2)C1(c1ccccc1)C1CCCC1 (stereo not drawn)
inactive: dose: 50.0 mg/kg/injection, schedule: Q04DX002 (ip), vehicle: saline 105 % of control | [14] 98 % of control | [12] 108 % of control | [16] 98 % of control | [13] 108 % of control | [19] 109 % of control

O=C(/C=C/c1cccnc1)/C=C/c1cccnc1
inactive: dose: 80.0 mg/kg/injection, schedule: Q01DX009 (ip), vehicle: Klucel (hydroxypropylcellulose) (HPC) 108 % of control

Nc1nc(-c2ccccc2)cc(=O)[nH]1
inactive: [3] 88 % of control | [4] 97 % of control | [5] 93 % of control

C=C(CCCCCC/C=C\CCCCCCCC)C(=O)O
inactive: dose: 100.0 mg/kg/injection, schedule: Q04DX002 (sc), vehicle: olive oil, sesame oil, peanut oil 103 % of control | dose: 200.0 mg/kg/injection, schedule: Q04DX002 (sc), vehicle: olive oil, sesame oil, peanut oil 103 % of control | dose: 400.0 mg/kg/injection, schedule: Q04DX002 (sc), vehicle: olive oil, sesame oil, peanut oil 103 % of control

CCCCCCCCCCOCCCCCCCCCC
inactive: [28] 92 % of control | [26] 92 % of control | [27] 89 % of control
